Assay [1] has as its system HeLa 21-4 cells. Nature of the assay: DNA ends detection in fixed HeLa cells subjected to damaging agents (H2O2, Tpt), Procedure 1. The class given is cell-based. The note with it: 30 min at 37 °C, H2O2 4 mM, Tpt 20 μM. How it is done:
Procedure: • 1. Pre-preparation (optional): • Incubation of live cells with 0.5-10 mM Tris (5 min-1 h at room temperature (RT)), cells should be monitored for morphological abnormalities. • 2. Fixation and permeabilization: • a. Incubation with 1%-4% formaldehyde solution, 10-15 min, 4° C. (optional) • b. Incubation with an […] detergent (e.g. Triton X-100 (0.25-3%) 10 min-1 h, RT. (optional) • c. Incubation in 70% ethanol in water, 1 h minimum but preferred 12-18 h, −20° C., sample should be stable for several months. (optional but most preferred) • 3. Pre-blocking (optional): • a. Wash (PBS 1×5 min) • b. Streptavidin solution—incubation performed on a droplet, 30 min, RT • c. Wash (PBS 3×5 min) • d. Biotin solution—incubation performed on a droplet, 30 min, RT • e. Wash (PBS 3×5 min) • 4. Increasing accessibility of DNA ends: • Incubation with 0.5-10 mM EDTA in water, 10 min-1 h, RT. • 5. Incorporation procedure: • Incorporation of unmodified and modified nucleotides (e.g. BrdU) using terminal deoxynucleotidyl transferase: • a. incubation is performed on a droplet in a humid chamber • b. samples are rinsed in wash buffers • 6. Blocking: • Incubation with 1-5% BSA solution in PBS (from 1 h to overnight in 4° C., RT). • 7. Incubation with primary antibodies—performed on a droplet in a humid chamber: • a. primary antibodies type 1 (e.g. mouse monoclonal against BrdU), preferred dilution 1:100 in 1-5% BSA, 1 h, RT • b. wash (PBS 3×5 min) • c. primary antibodies type 2 (e.g. rabbit polyclonal against BrdU), preferred dilution 1:100 in 1-5% BSA, 1 h, RT • d. wash (PBS 3×5 min) • 8. PLA procedure: • a. incubation with PLA Probes diluted in 1% BSA (37° C., 60 min, reaction on a droplet, in a humid chamber) in 40 μl of the reaction mixture per one coverslip: • 8 μl of PLA Probe MINUS stock (e.g. anti-mouse) • 8 μl of PLA Probe PLUS stock (e.g. anti-rabbit) • 24 μl of 1% BSA • b. wash samples with Wash Buffer A (2×5 min) • c. ligation—incubation (37° C., 30 min, reaction on a droplet, in a humid chamber) in 40 μl of the reaction mixture per one coverslip: • 8 μl of 5× Ligation stock (Sigma, Duolink, DUO82009), • 31 μl of ultrapure, RNAse/DNAse free, distilled water, • 1 μl of Ligase (1 U/μl) (Sigma, Duolink, DUO82027 or DUO82029) • d. wash samples with Wash Buffer A (2×2 min) • e. amplification—incubation (37° C., 100 min, reaction performed on a droplet, in a humid chamber) in 40 μl of the reaction mixture per one coverslip: • 8 μl of 5× Amplification stock (Sigma, Duolink, DUO82060 or DUO82011), • 31.5 μl of ultrapure, RNAse/DNAse free, distilled water, • 0.5 μl of Polymerase (10 U/μl) (Sigma, Duolink, DUO82028 or DUO82030) • 9. Imaging of samples in PBS using a fluorescence microscope. […]

Assay [2] relates to HeLa 21-4 cells. Nature of the assay: Detection of DNA breaks induced by photodynamic effect (ethidium bromide + 488 nm laser) in HeLa cells, Procedure 1. The class given is cell-based. The note with it: ethidium bromide (500 μM) 10 min, dose 9 mJ. How it is done: In this experiment the DNA breaks were induced by treating live cells (HeLa 21-4 cells, obtained from prof. P.R. Cook, Oxford University) with ethidium bromide (500 μM) for 10 min and then parking the laser beam (488 nm) at a chosen place inside the nucleus (dose: 9 mJ) 2 minutes after illumination step 2 of Procedure 1 was performed. The aim of the experiment was to directly detect DNA break (s) inflicted at a specific area of the cell nucleus by a photodynamic effect.
HeLa 21-4 cells were first seeded on 18-mm coverslips and cultured for 3 days in DMEM supplemented with 10% FBS. After culturing, DNA damage was induced in chosen cells, as described previously, followed by incubation in 70% ethanol in water, 15 h, −20° C. After that, increasing of accessibility of DNA ends (step 4) was performed with 10 mM EDTA in water, 1 h, RT. Incorporation of modified (BrdUTP) nucleotides (Phoenix Flow Systems) by terminal deoxynucleotidyl transferase was performed according to the kit supplier's instructions (APO-BRDU kit, Phoenix Flow Systems). The cells were then incubated with 1% BSA solution in PBS (overnight in 4° C.). The incubation with primary antibodies type 1 and 2 according to step 7 of Procedure 2 were performed using mouse monoclonal anti-BrdU (Abcam, ab8039) and rabbit polyclonal anti-BrdU (Abcam, ab152095) (1:100 in 1% BSA), respectively. […]

For the compound `CC[C@@]1(O)C(=O)OCc2c1cc1n(c2=O)Cc2cc3c(CN(C)C)c(O)ccc3nc2-1` [Tpt, topotecan], the “percentage of cells that show signs of heavy DNA damage (apoptotic cells) in the population” value in the assay on HeLa 21-4 cells [1] (untreated less than 5%) is “approximately 18%”. In addition, the “average number of detectable regions of incorporation of BrdU (free ends of DNA) per cell” value with HeLa 21-4 cells [1] (± standard error of the mean) is listed as 16.39±4.92.
For `CC[n+]1c(-c2ccccc2)c2cc(N)ccc2c2ccc(N)cc21` [ethidium bromide], in the assay with HeLa 21-4 cells [2], the “damaged nuclei with fluorescence focus visible at the illuminated place or in its direct proximity” value is 90%.

(Values after patent US20200255884A1, “METHOD OF DETECTION OF DNA END(S) AND ITS USE” (INTODNA SP. Z O.O., priority 2017, published 2020).)
